The record followed here is EPA's ToxRefDB 2.

Some results are limits rather than exact numbers.

Data set [1] concerns mouse. As to conditions: Carcinogenicity, other, Oral, Feed, dose end: 92 week, group: systemic.
Data set [2] concerns rat. As to conditions: Combined chronic toxicity/carcinogenicity, wistar, Oral, Feed, dose end: 104 week, group: systemic.
The subject of data set [3] is rat. The conditions noted are these: Combined chronic toxicity/carcinogenicity; fischer; Oral; Water; dose end: 21 month; group: systemic; systemic / pathology microscopic / heart / thrombus + systemic / pathology microscopic / liver / degeneration + systemic / pathology ….
The subject of data set [4] is rat. As to conditions: Subchronic oral toxicity in rodents, fischer, Water, dose end: 13 week, group: systemic.
The test system of data set [5] is rat. As to conditions: Subchronic oral toxicity in rodents, fischer, Water, dose end: 13 week, group: systemic. This is another data set of the same source.
Data set [6] has as its system rat. As to conditions: Subchronic oral toxicity in rodents, fischer, Feed, dose end: 8 week, group: systemic.
Data set [7] deals with rat. The conditions noted are these: Carcinogenicity, other, Oral, Feed, dose end: 80 week, group: systemic.
The test system of data set [8] is mouse. As to conditions: Subchronic oral toxicity in rodents, b6c3f1, Feed, dose end: 6 week, group: systemic, systemic / in life observation / mortality / mortality.
Data set [9] deals with mouse. The conditions noted are these: Carcinogenicity, b6c3f1, Oral, Feed, dose end: 80 week, group: systemic.
The subject of data set [10] is rat. As to conditions: Subchronic oral toxicity in rodents, other, Feed, dose end: 6 week, group: systemic.
Data set [11] relates to rat. As to conditions: Carcinogenicity; fischer; Oral; Feed; dose end: 105 week; group: systemic; systemic / in life observation / clinical signs / convulsions + systemic / in life observation / clinical signs / nervousness + systemic / ….
The subject of data set [12] is mouse. The conditions noted are these: Multigenerational reproductive toxicity study; other; Oral; Feed; dose end: 1 generation; group: reproductive; reproductive / offspring survival early / litter size / litter size.
The subject of data set [13] is rat. The conditions noted are these: Developmental neurotoxicity study; Oral; Feed; dose end: 90 PND; group: cannot be grouped; systemic / organ weight / liver / relative to body weight + systemic / pathology microscopic / liver / vacuolization.
Setting [14] is: systemic / pathology microscopic / liver / depletion glycogen.
The mark [15] stands for this setting: systemic / pathology microscopic / liver / depletion glycogen + systemic / pathology microscopic / lung / adenocarcinoma + systemic / ….
The mark [16] stands for this setting: systemic / pathology microscopic / liver / hypertrophy + systemic / pathology microscopic / thyroid gland / [other].
Setting [17] is: systemic / pathology microscopic / liver / hypertrophy + systemic / pathology microscopic / thyroid gland / [other] + systemic / in life ….
Where [18] appears, read: systemic / in life observation / body weight / body weight gain + systemic / organ weight / kidney / relative to body weight + systemic / ….
The mark [19] stands for this setting: systemic / organ weight / liver / relative to body weight.
Setting [20] is: systemic / clinical chemistry / creatinine / creatinine + systemic / clinical chemistry / thyroxine (t4) / thyroxine (t4), total + systemic….
The mark [21] stands for this setting: systemic / in life observation / body weight / body weight + systemic / pathology microscopic / kidney / nephropathy + systemic / pathology ….
[22] abbreviates: systemic / pathology microscopic / brain / necrosis + systemic / in life observation / body weight / body weight + systemic / in life ….
[23] abbreviates: systemic / in life observation / body weight / body weight + systemic / in life observation / clinical signs / [other] + systemic / in life ….
Where [24] appears, read: systemic / in life observation / clinical signs / excitation + systemic / in life observation / clinical signs / tremors.
Setting [25] is: systemic / in life observation / clinical signs / excitation + systemic / in life observation / clinical signs / tremors + systemic / in ….
[26] abbreviates: systemic / in life observation / body weight / body weight.
The mark [27] stands for this setting: systemic / in life observation / body weight / body weight + systemic / in life observation / mortality / mortality.

As to `CC1(C)[C@H](C(=O)OCc2cccc(Oc3ccccc3)c2)[C@@H]1C=C(Cl)Cl` [1RS cis-Permethrin], in the data set on mouse [1] (setting [14]), the LEL was determined as 10 mg/kg/day and the NEL is < 10 mg/kg/day. Further, in the data set with mouse [1] (setting [15]), the LOAEL is > 250 mg/kg/day and the NOAEL was ≥ 250 mg/kg/day. Besides, in the data set on rat [2] (setting [16]), the LEL amounted to 50 mg/kg/day and the LOAEL worked out at 50 mg/kg/day. Moreover, in the data set with rat [2] (setting [17]), the NEL is 10 mg/kg/day and the NOAEL was 10 mg/kg/day.

On to `COc1cc(-c2ccc(N)c(OC)c2)ccc1N.Cl.Cl` [3,3'-Dimethoxybenzidine dihydrochloride], for which the LEL with rat [3] was determined as 6 mg/kg/day; with rat [4] (setting [19]) it was 13 mg/kg/day; in the data set on rat [5] (setting [20]), 11 mg/kg/day. Further, the LOAEL in the data set on rat [3] was 6 mg/kg/day; in the data set on rat [4] (setting [18]) it was > 120 mg/kg/day; in the data set on rat [5] (setting [21]), 109 mg/kg/day. Further, the NEL in the data set on rat [3] was < 6 mg/kg/day; in the data set on rat [4] (setting [19]), < 13 mg/kg/day; in the data set with rat [5] (setting [20]), < 11 mg/kg/day. In addition, the NOAEL is < 6 mg/kg/day in the data set on rat [3], ≥ 120 mg/kg/day in the data set with rat [4] (setting [18]) and 56 mg/kg/day in the data set on rat [5] (setting [21]).

As for `ClC1=C(Cl)[C@]2(Cl)[C@@H]3[C@@H]4C[C@@H]([C@H]5O[C@@H]45)[C@@H]3[C@@]1(Cl)C2(Cl)Cl` [Dieldrin], the lowest-observed-adverse-effect level (LOAEL) in the data set on rat [6] (systemic / pathology microscopic / brain / necrosis) is 5 mg/kg/day; in the data set with rat [7] (systemic / in life observation / clinical signs / convulsions), 3.25 mg/kg/day; in the data set on mouse [8] it was > 6 mg/kg/day; in the data set on mouse [9] (setting [24]), 0.375 mg/kg/day; with rat [10] (setting [27]), > 16 mg/kg/day; in the data set with rat [11] it was > 2.5 mg/kg/day. Also, the LOAEL in the data set on mouse [12] is > 0.75 mg/kg/day; in the data set on rat [13] it was > 0.00035 mg/kg/day. Further, the LEL worked out at 5 mg/kg/day in the data set with rat [6] (systemic / pathology microscopic / brain / necrosis + systemic / in life observation / body weight / body weight); 1.45 mg/kg/day in the data set on rat [7] (setting [23]); 3 mg/kg/day in the data set with mouse [8]; 0.375 mg/kg/day in the data set with mouse [9] (setting [25]); 2 mg/kg/day with rat [10] (setting [26]); 2.5 mg/kg/day in the data set on rat [11]. The values for the LEL with mouse [12] and with rat [13] were 0.75 mg/kg/day and 0.00035 mg/kg/day, respectively. Also, the NEL in the data set with rat [6] (setting [22]) is 2.5 mg/kg/day; with rat [7] (setting [23]) it was < 1.45 mg/kg/day; in the data set with mouse [8], 1.5 mg/kg/day; with mouse [9] (setting [25]), < 0.375 mg/kg/day; in the data set on rat [10] (setting [26]) it was < 2 mg/kg/day; with rat [11], 0.5 mg/kg/day. Moreover, the NEL in the data set with mouse [12] was < 0.75 mg/kg/day; in the data set with rat [13], < 0.00035 mg/kg/day. The NOAEL with rat [6] (setting [22]) was 2.5 mg/kg/day; in the data set with rat [7] (systemic / in life observation / clinical signs / convulsions + systemic / in life observation / body weight / body weight + systemic / in …), 1.45 mg/kg/day; in the data set on mouse [8], ≥ 6 mg/kg/day; in the data set with mouse [9] (setting [24]), < 0.375 mg/kg/day; with rat [10] (setting [27]) it was ≥ 16 mg/kg/day; in the data set with rat [11], ≥ 2.5 mg/kg/day. Further, the NOAEL in the data set with mouse [12] is ≥ 0.75 mg/kg/day; in the data set with rat [13], ≥ 0.00035 mg/kg/day.

What is called LOAEL is the lowest tested level that showed an adverse finding. For orientation: NOAEL means the highest dose or exposure tested at which no adverse effect was seen.
